Results: patent publication US5939447A, “Substituted benzopyrans” (SmithKline Beecham Corporation, priority 1998, dated 1999)

Key:
[1] = human radiolabel study of pranlukast (recovery in feces, metabolites in feces and plasma); assay type: in vivo; conditions: for plasma concentrations of metabolite in humans: human plasma, limited data from the single radiolabelled study
[2] = incubation of pranlukast with liver microsomes from rats or mice; assay type: in vitro ADME; conditions: rat or mouse liver microsomes; for metabolite formation from pranlukast: high concentrations of pranlukast (50 uM)
[3] = incubation of pranlukast with liver microsomes from dogs; assay type: in vitro ADME; conditions: dog liver microsomes
[4] = incubation of pranlukast with human liver S9 from donor H51; assay type: in vitro ADME
Experimental: Samples from the human S9 incubations were received as a 1:1 mixture of incubation media and acetonitrile. In order to reduce the relative organic content to about 25%, the samples were diluted with an equal volume of water prior to HPLC/MS and HPLC/MS/MS analysis. Samples from the microsomal incubations were also received as a 1:1 mixture of incubation media and acetonitrile. The relative organic content was however reduced to about 25% by evaporation following the centrifugation step.
Retention times observed in the ion chromatograms for m/z 498 and 482 (pranlukast) correlate well with those in the radiochromatogram. […] Therefore, in the CID spectra of the two monohydroxylated metabolites and the parent compound, the precursor and fragment ions are all shifted by +2 amu due to the predominance of the [^14 C] label. The observed fragmentation patterns are identical to the standards and confirmed the presence of pranlukast, as well as two monohydroxylated metabolites.

[5] = assays predictive of utility in treating asthma
[6] = incubation with human liver microsomes; assay type: in vitro ADME; conditions: human liver microsomes and NADPH
Experimental: From an evaluation of a battery of human liver microsomes, it was evident that some human livers have enhanced activity towards benzylic hydroxylation. It appears that benzylic and aryl hydroxylation are performed by different P450 enzymes but which enzyme(s) is currently not known.
Preparation of Formula (I) Using Human Hepatic Microsomes:
The incubations were performed with a final volume of 100 mL in a shaking water bath at a temperature of approximately 37° C. Each incubation contained approximately 400 ug/mL of microsomal protein (H51), 0.5 mL 2 mM pranlukast in a 16% w/v encapsin solution containing 1.5% w/v sodium bicarbonate. The incubation volume was adjusted to 75 mL with 50 mM potassium phosphate buffer (pH 7.4). Following a 5 minute pre-incubation at approximately 37° C., the reaction was initiated by the addition of 25 mL of pre-warmed cofactor solution (approximately 1.7 mg NADP, 7.8 mg glucose 6-phosphate and 6 units of glucose 6-phosphate dehydrogenase per mL of 2% (w/v) sodium hydrogen carbonate). […] The putative benzyl hydroxy metabolite was subsequently isolated and analysed as described below. […]
The incubation was performed with a final volume of […] in a shaking water bath at a temperature of approximately 37° C. […] The putative dihydroxymetabolite formed was subsequently analysed and isolated as described below.

| absorption ([1]; human) | route of metabolism in humans ([1]; human, benzylic hydroxylation) | dose excreted ([1]; human, feces, after pranlukast, read-out: administered radiolabel recovered in feces as the named species) [%] | administered radiolabel recovered in feces ([1]; human, total radiolabel after pranlukast) [%] | SMILES | sulfation in humans ([1]; human) | plasma concentrations of metabolite in humans [1] | plasma concentrations of metabolite in humans ([1]; listed as benzylhydroxy) | metabolite formation from pranlukast [2] | metabolite formation from pranlukast [3] | dependence of metabolite formation on NADPH [4] | metabolite formation from pranlukast [4] | activity in assays predictive of utility in treating asthma and other diseases which can be treated by pranlukast [5] | presence of metabolite in human fecal samples ([1]; human feces) | metabolite generated in vitro from the 4-hydroxyphenyl pranlukast analog [6] | predominant metabolic pathway [2] |
| --- | --- | --- | --- | --- | --- | --- | --- | --- | --- | --- | --- | --- | --- | --- | --- |
|  |  |  |  | O=C(Nc1cccc2c(=O)cc(-c3nnn[nH]3)oc12)c1ccc(OCCCC(O)c2ccccc2)cc1 (centres unmarked) [Formula (I), 4-oxo-8-[4-(4-hydroxy-4-phenylbutoxy)benzoylamino]-2-tetrazol-5-yl-4H-1-benzopyran] | no evidence for sulfation | measurable plasma concentrations in humans | measurable in human plasma | detectable | only very small amounts | dependent on the presence of NADPH | major metabolites | active |  |  |  |
|  |  |  |  | O=C(Nc1cccc2c(=O)cc(-c3nnn[nH]3)oc12)c1ccc(OCCCC(O)c2ccc(O)cc2)cc1 (centres unmarked) [Formula (II), 4-oxo-8-[4-(4-hydroxy-4-(4-hydroxyphenyl)butoxy)benzoylarnino]-2-tetrazol-5-yl-4H-1-benzopyran] | appears to be sulfated in humans | measurable in human plasma |  | detectable | form the arylhydroxy species |  |  | active | found in human fecal samples | generated in vitro |  |
| poor absorption | major route of metabolism in humans | ~84 | 98.4 | O=C(Nc1cccc2c(=O)cc(-c3nnn[nH]3)oc12)c1ccc(OCCCCc2ccccc2)cc1 [pranlukast, reference compound] |  |  |  |  |  |  |  |  |  |  | hydrolysis of the amide bond in the center of the molecule is the predominant metabolic pathway |
